Data as given in patent publication US9663429B2, “Vitamin D analogues of pharmaceutical interest” (UNIVERSIDADE DE SANTIAGO DE COMPOSTELA, priority 2013, dated 2017).

Legend:
vitamin D receptor (VDR) = target: T1, vitamin D receptor (VDR) (Homo sapiens, UniProt P11473); experiment: Competitive binding to vitamin D receptor (Polarscreen VDR competitor assay, fluorescence polarisation)
T1 construct: purchased Invitrogen
T1 sequence (P11473 1-427): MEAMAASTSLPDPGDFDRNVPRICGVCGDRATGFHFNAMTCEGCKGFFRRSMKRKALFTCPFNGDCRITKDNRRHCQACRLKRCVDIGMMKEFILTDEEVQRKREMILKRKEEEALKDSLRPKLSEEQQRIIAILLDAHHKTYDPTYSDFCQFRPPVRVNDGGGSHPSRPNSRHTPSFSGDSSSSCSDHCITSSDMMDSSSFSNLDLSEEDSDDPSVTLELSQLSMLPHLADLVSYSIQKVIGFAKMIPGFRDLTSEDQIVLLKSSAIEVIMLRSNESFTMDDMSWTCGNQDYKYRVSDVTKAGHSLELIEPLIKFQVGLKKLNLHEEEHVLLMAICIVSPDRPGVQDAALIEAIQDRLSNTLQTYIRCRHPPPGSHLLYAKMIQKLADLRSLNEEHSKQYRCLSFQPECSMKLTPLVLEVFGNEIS
Method: FIG. 1. […] The values represent the mean of at least two experiments.
Polarised fluorescence was determined in 384-well black plates for 200 ms/well using a Mithras LB 940 device (Berthold Technologies).

MCF-7 cells [1] = experiment: 3D cell culture on matrigel (spheroid size), MCF-7; format: cell-based, human
Method: FIG. 7. MCF-7 cells were shown for 10 days on a matrigel bed until they formed a 3D cellular structure. […] After treatment, the spheroids were stained with DAPI (4′,6-diamino-2-phenylindole) for 1 hour and photographed under an inverted microscope with ultraviolet light. The size of these spheroids was measured and the values were represented as mean±SD in relative units. […] Those cells treated with the carrier were considered as the control value.
For 3D cell culture, a cushion of 200 μl of Matrigel (BD Biosciences) was used in each of the wells of multi-well plates of 24 wells. They were incubated at 37° C. for 20 minutes for their solidification and subsequently the cell suspension (5×10^3 cells per 100 μl volume of medium) was loaded onto the matrigel solidified and another incubation at 37° C. was performed for 30 minutes so that the cells penetrated properly on the matrigel base. 500 μl of DMEM medium were added to each well, and the cells were maintained in culture for 10 days. At the end of this time, the cells were started to be treated with each of the 5 analogues used and 1,25D.

[2] = Calcaemic effects in mice at 0.3 μg/kg; format: in vivo
Method: FIG. 8. […] 1,25D and the various analogues were injected intraperitoneally every 2 days for 21 days at a dose of 0.3 μg/Kg. After treatment the calcium levels in the serum were evaluated and the values were represented as mean±SD in […].
(§1) Calcium mobilization of analogues was determined in 28 male CD-1 mice (6-8 weeks old). 6 Groups of 4 mice each were established, which mice were intraperitoneally (ip) injected with 0.3 μg/kg weight of each analogue or 1,25D dissolved in sesame oil every two days for 3 weeks. A seventh group of 4 mice treated with the carrier (sesame oil) served as controls. Calcium levels in blood were determined by QuantiChomCalciumAssay Kit (BioAssaySystems, Hayward, Calif., USA). In addition, a dose-response assay was performed to assess the effect of administration of the analogues PG-403 and PG136p and hormone (1,25D) at different doses on calcium levels. This assay was performed in male mice (5 mice per group), and the doses used were: 0.1, 0.5, 1, and 5 μg/kg weight of each analogue or 1,25D, i.p. administered every two days for 21 days. In addition, a control group (mice treated with sesame oil) was used.

[3] = Dose-response assay of serum calcium in mice; format: in vivo; conditions: for Serum calcium versus controls, analogues: doses 0.1, 0.5, 1 and 5 μg/kg ip every 2 days for 21 days
Method: FIG. 9. […] 1,25D (dose of 0.3 μg/kg) and analogues (doses of 0.1, 0.5, 1 and 5 μg/kg) were injected intraperitoneally every 2 days for 21 days. After treatment the calcium levels in the serum were evaluated and the values were represented as mean±SD in […].
as §1

[4] = Body weight of mice in the dose-response assay; format: in vivo; conditions: mice, 0.1, 0.5, 1 and 5 μg/kg ip every 2 days for 21 days
Method: FIG. 10. […] 1,25D (dose of 0.3 μg/kg) and analogues (doses of 0.1, 0.5, 1 and 5 μg/kg) were injected intraperitoneally every 2 days for 21 days. Animals were weighed every two days during treatment. The values were represented as mean±SD in […].
In this experiment, also the weight of the animals was quantified to determine whether there was any modification throughout the treatment.

MCF-7-Luc cells = experiment: In vivo anti-tumour activity, MCF-7-Luc tumours in SCID mice; conditions: 5 μ/kg ip every 2 days for 28 days, p≦0.05
Method: FIG. 12. In this figure the results obtained by treating a group of 32 mice with the analogue PG136 after being injected with MCF-7-Luc cells are shown.
(§2) In order to study the anti-tumour activity of the analogue PG136 in vivo, 32 immunosuppressed CB17-Prkdc^scid 8 weeks old female mice were used, called SCID (PRBB, Barcelona, Spain). These mice were injected subcutaneously with 5×10^6 breast tumour cells MCF-7 and MDA-MB-231 stably transfected with plasmid pcDNA3-Luciferase coding for the gene of the luciferase (called MCF-7-Luc and MDA-MB-231-Luc). Two groups of 8 mice were injected with cells MCF-7-Luc and other 2 groups of 8 mice with MDA-MB-231-Luc cells. Fifteen days after injection, the mice were started to be treated intraperitoneally every 2 days for 28 days with the analogue PG136 at a dose of 5 μ/kg dissolved in sesame oil used as carrier. The control group is treated in the same way and with the same range with sesame oil. Tumour size is determined every seven days once started the treatment using an in vivo imaging system (IVIS, Caliper Life Sciences, Alameda, USA), and the tumour size is calculated using a map of intensities retrieved using the Living Image (Caliper Life Sciences) software. In the case of the 2 groups of mice injected with MDA-MB-231-Luc cells, the experiment continued until day 60 and Kaplan-Meier Survival estimates were made.

MDA-MB-231-Luc cells = experiment: In vivo anti-tumour activity, MDA-MB-231-Luc tumours in SCID mice
Text: FIG. 13. In this figure the results obtained by treating a group of 32 mice with the analogue PG136 after being injected with MDA-MB-231-Luc cells are shown.
FIG. 14. The survival rate of mice treated with the analogue PG136 after being injected with MDA-MB-231-Luc cells is shown and compared with control mice.
as §2, with “In the case of the 2 groups of mice injected with MDA-MB-231-Luc cells, the experiment continued until day 60 and Kaplan-Meier Survival estimates were made.” left out

PC-3 cells = experiment: MTT proliferation assay, PC-3; conditions: 10^−7 M, 48 hours, 100% control cells
Method: Proliferation assay in the PC-3 cell line of human prostate adenocarcinoma. […] The values were plotted in the graphs as mean±SD. As proliferation value, 100% was considered the normal growth of PC-3 cells treated with the carrier in the control.
(§3) The cells were cultured in 90-mm plates in essential culture medium DMEM, supplemented with 10% bovine foetal serum free of steroid hormones, 100 U/ml penicillin, 100 μg/ml streptomycin and 2 mM non-essential amino acids (L-glutamine) at 37° C. in a humid atmosphere O2/CO2 (95/5%).
(§4) The first is an indirect method for determining living cells, wherein the yellow water soluble MTT is reduced in mitochondria, thus generating a purple insoluble product (formazan). […] After this time, the culture medium was removed and 500 μl of dimethylsulfoxide (DMSO) was added to each well to solubilise the formazan incorporated by the cells.

MCF-7 cells [5] = experiment: MTT proliferation assay, MCF-7; conditions: 10^−7 M, 48 hours, 100% control cells
Method: Proliferation assay in the MCF-7 cell line of human breast adenocarcinoma. […] The values were plotted in the graphs as mean±SD. As proliferation value, 100% was considered the normal growth of MCF-7 cells treated with the carrier in the control.
as §3
Cell proliferation/toxicity in breast cancer lines was assessed by both incorporation assays of 3-(4,5-dimethylthiazol-2-yl)-2,5-difeniltetrazolium (MTT) bromide and cell culture in three dimensions (3D).
as §4

HaCaT cells = experiment: MTT proliferation assay, HaCaT; conditions: 10^−7 M, 48 hours, 100% control cells
Method: Proliferation assay in the HaCaT cell line of human keratinocytes. […] The values were plotted in the graphs as mean±SD. As proliferation value, 100% was considered the normal growth of HaCaT cells treated with the carrier in the control.
as §3, §4

SKOV-3 cells = experiment: MTT proliferation assay, SKOV-3; conditions: 10^−7 M, 48 hours, 100% control cells
Method: Proliferation assay in the SKOV-3 cell line of human ovary adenocarcinoma. […] The values were plotted in the graphs as mean±SD. As proliferation value, 100% was considered the normal growth of SKOV-3 cells treated with the carrier in the control.
as §3, §4

[6] = system: 24-hydroxylase promoter, CYP24A1 (pCYP24A1-Luc); experiment: Transactivation reporter assay (pCYP24A1-Luc) in MCF-7 cells
Method: MCF-7 cells were transfected with the reporter vector of 24-hydroxylase (pCYP24A1-Luc vector) for 24 hours. […] The experiments were performed at least twice. The error bars represent the standard deviation (SD).

## C=C1/C(=C\C=C(/CC)c2cccc(CCCCCC(C)(C)O)c2)C[C@@H](O)C[C@@H]1O [PG-136p, (1R,3S,Z)-5-((E)-3-(3-(6-hydroxy-6-methylheptyl)phenyl)pent-2-enyliden)-4-methylenecyclohexane-1,3-diol]
Vitamin D receptor (VDR); activity relative to natural hormone 1,25D normalised at 100%
  Binding to VDR % relative to 1,25D (100%): 24%
Vitamin D receptor (VDR); competitive displacement, 10^−11 to 10^−5 M
  IC50: 7.11 nM
MCF-7 cells [1]; 10^−7 M for 7 days
  Three-dimensional growth of MCF-7 spheroids (in words): inhibit the three-dimensional growth, similarly to 1,25D
MCF-7 cells [1]; 10^−7 M, matrigel spheroids, 100% control cells
  Cell proliferation percentage MCF-7 3D: 69%
[2]; 0.3 μg/Kg ip every 2 days for 21 days
  Hypercalcemia (serum calcium versus control): does not produce hypercalcemia
[2]; ip every two days for 21 days, 0.3 μg/kg (table title prints 0.3 mg/kg)
  Calcaemic activity: blood calcium in percentage over that induced by 1,25D: 0%
[3]; 5 μg/kg weight ip every two days for 21 days
  Serum calcium versus control animals (placebo): did not significantly raise serum calcium
[3]
  Serum calcium versus controls, analogues: does not produce hypercalcemia
[3]; listed as PG136p
  Serum calcium versus controls, analogues: None of the two analogues tested (PG136p and PG-403) induces increased serum calcium
[4]
  Body weight versus control animals, analogues: does not change the body weight
[4]; listed as PG136p
  Body weight versus control animals, analogues: did not significantly affect the body weight
MCF-7-Luc cells
  Tumour volume versus control group: smaller volume
MDA-MB-231-Luc cells; 5 μ/kg ip every 2 days for 28 days, p≦0.0001
  Tumour volume versus control group: smaller volume
MDA-MB-231-Luc cells; until day 60, p=0.042
  Survival rate versus control mice (Kaplan-Meier): higher survival rate
PC-3 cells
  Cell proliferation percentage PC-3 2D: 78%
MCF-7 cells [5]
  Cell proliferation percentage MCF-7 2D: 65%
HaCaT cells
  Cell proliferation percentage HaCaT 2D: 68%
SKOV-3 cells
  Cell proliferation percentage SKOV-3 2D: 78%
[6]; Homo sapiens, MCF7, 24 h, read-out: Transcriptional activity EC50
  EC50: 5.97 nM
[6]; MCF-7 cells, pCYP24A1-Luc
  Transcriptional activity % relative to 1,25D (100%): 33%
